Measurements: publication PMC9901937, “Selective androgen receptor degrader (SARD) to overcome antiandrogen resistance in castration-resistant prostate cancer” (eLife, 2023)

Target: T1, androgen receptor (AR) (Homo sapiens, UniProt P10275)
T1 construct: AR from LNCaP cytosol (LBD site)
T1 sequence (P10275 1-920): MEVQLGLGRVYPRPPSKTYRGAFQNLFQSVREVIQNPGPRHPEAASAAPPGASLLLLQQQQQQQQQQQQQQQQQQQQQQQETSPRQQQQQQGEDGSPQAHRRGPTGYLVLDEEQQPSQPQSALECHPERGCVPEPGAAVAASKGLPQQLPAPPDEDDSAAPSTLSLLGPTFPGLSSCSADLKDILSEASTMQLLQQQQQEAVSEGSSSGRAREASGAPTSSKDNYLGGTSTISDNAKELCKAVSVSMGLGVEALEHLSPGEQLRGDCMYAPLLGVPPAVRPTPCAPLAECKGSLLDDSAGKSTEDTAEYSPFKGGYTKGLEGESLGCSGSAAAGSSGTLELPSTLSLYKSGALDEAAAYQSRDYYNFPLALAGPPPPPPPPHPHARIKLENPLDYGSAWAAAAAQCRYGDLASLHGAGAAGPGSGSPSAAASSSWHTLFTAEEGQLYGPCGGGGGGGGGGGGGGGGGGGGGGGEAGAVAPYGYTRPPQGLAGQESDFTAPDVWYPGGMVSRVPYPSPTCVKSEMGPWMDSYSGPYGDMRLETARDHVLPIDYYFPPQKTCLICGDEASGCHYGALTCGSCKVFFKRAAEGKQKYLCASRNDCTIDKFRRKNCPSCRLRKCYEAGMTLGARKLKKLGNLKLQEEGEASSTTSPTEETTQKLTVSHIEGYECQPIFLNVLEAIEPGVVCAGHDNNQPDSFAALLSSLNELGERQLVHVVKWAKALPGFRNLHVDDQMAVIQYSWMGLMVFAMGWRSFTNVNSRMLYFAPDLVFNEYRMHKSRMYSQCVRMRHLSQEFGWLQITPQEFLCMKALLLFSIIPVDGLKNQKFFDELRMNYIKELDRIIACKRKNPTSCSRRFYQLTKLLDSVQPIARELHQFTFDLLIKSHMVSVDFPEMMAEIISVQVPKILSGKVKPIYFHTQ
Test: [3H]DHT competitive radioligand binding; also BLI and FP on AR LBD, and SPR (KD […]) and BLI on AR AF1 ([…] aa)

IC50: 0.0633 µM
SMILES: Cc1noc(C)c1COc1ccc(C(=O)Nc2nc(-c3cccs3)cs2)cc1 [Z15, 4-[(3,5-Dimethyl-4-isoxazolyl)methoxy]-N-4-[(2-thienyl)-2-thiazole]-benzamide]
